Measured values reported in US20250154686A1, “COMPOUND LIBRARY” (CHUGAI SEIYAKU KABUSHIKI KAISHA, priority 2021, published 2025).

Molecular target: T1, Bcl-2 protein (Recombinant Human Bcl-2 Protein) (Homo sapiens, UniProt P10415)
T1 construct: purchased Novus Biologicals NBP2-34889
Test: AS-MS evaluation of binding of the Example 4 mixture library (1200 compounds/well) to Bcl-2, ASMS ratio (%)
Procedure, shortened: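 Binding is read as an ASMS ratio from reverse-phase LC/MS peak data. Samples: 1200 compounds at 20 nM each with 20 μM Bcl-2, 1 h at 23 °C in the dark, then P-2 SEC and organic-solvent extraction; references lacked protein, with and without SEC.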

[1] = replicate n = 1, mixture library, value belongs to the MS peak assigned to the compound
[2] = replicate n = 2, mixture library, value belongs to the MS peak assigned to the compound
[3] = AS-MS, mixture of 1200 compounds/well, Bcl-2 protein, replicate n = 1
[4] = AS-MS, mixture of 1200 compounds/well, Bcl-2 protein, replicate n = 2
[5] = AS-MS, Example 4 mixture library, Bcl-2, replicate n = 1
[6] = AS-MS, Example 4 mixture library, Bcl-2, replicate n = 2

T1 sequence (P10415 whole entry): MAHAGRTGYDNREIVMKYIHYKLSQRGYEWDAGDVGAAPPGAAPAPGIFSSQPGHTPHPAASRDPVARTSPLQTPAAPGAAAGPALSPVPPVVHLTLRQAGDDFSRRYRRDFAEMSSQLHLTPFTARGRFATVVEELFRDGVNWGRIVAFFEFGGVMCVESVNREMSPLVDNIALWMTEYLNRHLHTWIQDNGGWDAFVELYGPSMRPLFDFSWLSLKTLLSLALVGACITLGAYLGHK

| Structure (SMILES) | ASMS ratio (%) n = 1 [1] [%] | ASMS ratio (%) n = 2 [2] [%] | ASMS ratio (%) n = 1 [5] [%] | ASMS ratio (%) n = 2 [6] [%] | further results |
| --- | --- | --- | --- | --- | --- |
| CCCNC(=O)c1ccc(N2CCN(Cc3ccc(-c4cncc(OCC)c4)c(F)c3)CC2)nn1 [Compound B1M078-01] |  |  |  |  | ASMS ratio (%) n = 1 [3]: 0.0%; ASMS ratio (%) n = 2 [4]: 0.0% |
| CCOc1cncc(C#Cc2ccccc2C(=O)N2CCN(c3ccc(C(=O)NS(=O)(=O)CCC(F)(F)F)nn3)CC2)c1 [Compound B2N008-01, 6-[4-[2-[2-(5-Ethoxypyridin-3-yl)ethynyl]benzoyl]piperazin-1-yl]-N-(3,3,3-trifluoropropylsulfonyl)pyridazine-3-carboxamide] |  |  | 0.0 | −0.4 |  |
| CCOc1cccc(C#Cc2cncc(C(=O)N3CCN(c4ccc(C(=O)NS(=O)(=O)CCC(F)(F)F)nn4)CC3)c2)c1 [Compound B2N009-01, 6-[4-[5-[2-(3-Ethoxyphenyl)ethynyl]pyridine-3-carbonyl]piperazin-1-yl]-N-(3,3,3-trifluoropropylsulfonyl)pyridazine-3-carboxamide] |  |  | 0.0 | −0.4 |  |
| CCOc1cncc(-c2ccc(CN3CCN(c4ccc(C(=O)NS(=O)(=O)c5ccc(NCCSc6ccccc6)c(C(F)(F)F)c5)nn4)CC3)c(OC)c2)c1 [Compound B2R080-01, 6-[4-[[4-(5-Ethoxypyridin-3-yl)-2-methoxyphenyl]methyl]piperazin-1-yl]-N-[4-(2-phenylsulfanylethylamino)-3-(trifluoromethyl)phenyl]sulfonylpyridazine-3-carboxamide] |  |  | 16.7 | 21.2 |  |
| CCOc1cccc(-c2ccc(CN3CCN(c4ccc(C(=O)NS(C)(=O)=O)nn4)CC3)cc2F)c1 [Compound B2I077-01, 6-[4-[[4-(3-Ethoxyphenyl)-3-fluorophenyl]methyl]piperazin-1-yl]-N-methylsulfonylpyridazine-3-carboxamide] | 0.0 | 0.0 |  |  |  |
| CCOc1cccc(C#Cc2cncc(C(=O)N3CCN(c4ccc(C(=O)NS(=O)(=O)c5ccc(NCCSc6ccccc6)c(C(F)(F)F)c5)cc4)CC3)c2)c1 [Compound B2R031-01, 4-[4-[5-[2-(3-Ethoxyphenyl)ethynyl]pyridine-3-carbonyl]piperazin-1-yl]-N-[4-(2-phenylsulfanylethylamino)-3-(trifluoromethyl)phenyl]sulfonylbenzamide] |  |  | 0.0 | 4.8 |  |
| CCOc1cncc(-c2ccccc2CN2CCN(c3ccc(C(=O)NS(C)(=O)=O)nn3)CC2)c1 [Compound B2I072-01, 6-[4-[[2-(5-Ethoxypyridin-3-yl)phenyl]methyl]piperazin-1-yl]-N-methylsulfonylpyridazine-3-carboxamide] | 0.8 | 1.3 |  |  |  |
| CCOc1cccc(-c2ccc(C(=O)N3CCN(c4ccc(C(=O)NS(=O)(=O)CCC(F)(F)F)nn4)CC3)cc2C)c1 [Compound B2N003-01, 6-[4-[4-(3-Ethoxyphenyl)-3-methylbenzoyl]piperazin-1-yl]-N-(3,3,3-trifluoropropylsulfonyl)pyridazine-3-carboxamide] |  |  | 0.0 | 0.0 |  |
| CCCNC(=O)c1ccc(N2CCN(Cc3cc(-c4cccc(OCC)c4)cs3)CC2)cc1 [Compound B1M067-01] |  |  |  |  | ASMS ratio (%) n = 1 [3]: −1.6%; ASMS ratio (%) n = 2 [4]: −87.4% |

More lines, main results first:

| ASMS ratio (%) n = 1 [1] [%] | ASMS ratio (%) n = 2 [2] [%] | ASMS ratio (%) n = 1 [5] [%] | ASMS ratio (%) n = 2 [6] [%] | Structure (SMILES) | further results |
| --- | --- | --- | --- | --- | --- |
| −10.7 | 8.3 |  |  | CCOc1cncc(-c2ccccc2CN2CCN(c3ccc(C(=O)NS(=O)(=O)C(C)(C)C)nn3)CC2)c1 [Compound B2L072-01, N-tert-Butylsulfonyl-6-[4-[[2-(5-ethoxypyridin-3-yl)phenyl]methyl]piperazin-1-yl]pyridazine-3-carboxamide] |  |
| 0.0 | 0.0 |  |  | CCOc1cccc(-c2csc(CN3CCN(c4ccc(C(=O)NS(=O)(=O)C(C)(C)C)cc4)CC3)c2)c1 [Compound B2L067-01] |  |
| 0.0 |  |  |  | CCOc1cccc(C#Cc2cc(C(=O)N3CCN(c4ccc(C(=O)NS(=O)(=O)C(C)(C)C)cc4)CC3)cc(C(F)(F)F)c2)c1 [Compound B2L041-01, N-tert-Butylsulfonyl-4-[4-[3-[2-(3-ethoxyphenyl)ethynyl]-5-(trifluoromethyl)benzoyl]piperazin-1-yl]benzamide] |  |
|  |  | 9.2 | 7.5 | CCOc1cncc(-c2ccc(C(C)N3CCN(c4ccc(C(=O)NS(=O)(=O)c5ccc(NCCSc6ccccc6)c(C(F)(F)F)c5)cc4)CC3)cc2)c1 (centres unmarked) [Compound B2R098-01, 4-[4-[1-[4-(5-Ethoxypyridin-3-yl)phenyl]ethyl]piperazin-1-yl]-N-[4-(2-phenylsulfanylethylamino)-3-(trifluoromethyl)phenyl]sulfonylbenzamide] |  |
|  | 0.0 |  |  | CCOc1cccc(-c2ccc(C(C)N3CCN(c4ccc(C(=O)NS(C)(=O)=O)cc4)CC3)c(F)c2)c1 (centres unmarked) [Compound B2I099-01, 4-[4-[1-[4-(3-Ethoxyphenyl)-2-fluorophenyl]ethyl]piperazin-1-yl]-N-methylsulfonylbenzamide] |  |
| 0.0 | −1.0 |  |  | CCOc1cncc(C#Cc2cncc(C(=O)N3CCN(c4ccc(C(=O)NS(=O)(=O)C(C)(C)C)cc4)CC3)c2)c1 [Compound B2L032-01, N-tert-Butylsulfonyl-4-[4-[5-[2-(5-ethoxypyridin-3-yl)ethynyl]pyridine-3-carbonyl]piperazin-1-yl]benzamide] |  |
|  |  | 0.0 | 0.0 | CCOc1cccc(-c2cc(CN3CCN(c4ccc(C(=O)NS(=O)(=O)C(C)(C)C)nn4)CC3)cc(OC(F)(F)F)c2)c1 [Compound B2L089-01, N-tert-Butylsulfonyl-6-[4-[[3-(3-ethoxyphenyl)-5-(trifluoromethoxy)phenyl]methyl]piperazin-1-yl]pyridazine-3-carboxamide] |  |
| 4.6 | −11.1 |  |  | CCOc1cccc(-c2cc(CN3CCN(c4ccc(C(=O)NS(=O)(=O)C(C)(C)C)cc4)CC3)cc(C(F)(F)F)c2)c1 [Compound B2L061-01, N-tert-Butylsulfonyl-4-[4-[[3-(3-ethoxyphenyl)-5-(trifluoromethyl)phenyl]methyl]piperazin-1-yl]benzamide] |  |
|  |  | 0.0 | 0.0 | CCOc1cccc(-c2ccc(C(C)N3CCN(c4ccc(C(=O)NS(=O)(=O)C(C)(C)C)cc4)CC3)cc2)c1 (centres unmarked) [Compound B2L097-01, N-tert-Butylsulfonyl-4-[4-[1-[4-(3-ethoxyphenyl)phenyl]ethyl]piperazin-1-yl]benzamide] |  |
|  |  | 3.9 | −5.0 | CCOc1cncc(-c2ccc(C(C)N3CCN(c4ccc(C(=O)NS(=O)(=O)C(C)(C)C)cc4)CC3)cc2)c1 (centres unmarked) [Compound B2L098-01, N-tert-Butylsulfonyl-4-[4-[1-[4-(5-ethoxypyridin-3-yl)phenyl]ethyl]piperazin-1-yl]benzamide] |  |
|  |  | −1.5 | −0.7 | CCOc1cncc(-c2ccc(C(=O)N3CCN(c4ccc(C(=O)NS(=O)(=O)CCC(F)(F)F)cc4)CC3)cc2C)c1 [Compound B2N026-01, 4-[4-[4-(5-Ethoxypyridin-3-yl)-3-methylbenzoyl]piperazin-1-yl]-N-(3,3,3-trifluoropropylsulfonyl)benzamide] |  |
